Patent US4041032A, “Pyrazine derivatives” (priority 1974, dated 1977)
Where two headings read alike, the source gives them in different places.

Assays:
[1] = system: emesis induced by apomorphine; assay: Antiemetic activity, subcutaneous (apomorphine-induced emesis); assay type: in vivo, dog; details: for ED50: Canis lupus familiaris, sc, read-out: Antiemetic activity ED50 (s.c); for Antiemetic activity ED50 (s.c): Table II
Procedure: Each of the test samples was administered to a dog by subcutaneous injection; then 0.1 mg./kg. of apomorphine was administered to a dog by subcutaneous injection after 30 minutes, and the frequency of emesis within 30 minutes after the injection was measured. (Each dog was used only once). From the frequency of emesis, the inhibition rate was calculated and from the relation between the amount of the sample used and the inhibition rate, ED50 (μg/kg.) was determined. Drug activity was assessed by ED50 values.
1. Subcutaneous administration:
Same as Experiment (I-a).

[2] = Cataleptic activity (Courvoisier's method); details: in vivo, sc, rat
Procedure: According to the Courvoisier's method (Courvoisier, S, Durcot, R. & Jolou, L, (1957), Psychotropic drugs (Ed. Garattini, S and Ghetti, V.), p. 373, Else vier Publishing Company, Amsterdam, London, New York, Princeton), the four limbs of a rat were placed on four rubber stoppers and when the rat could maintain the same pose for 30 seconds, the rat was determined to be positive. The catalepsy was measured every 30 minutes till 240 minutes after the subcutaneous administration of the sample. The sample that produced a positive response in rat even once was determined to be positive in the cataleptic test. From the relation between the positive response and the amount of the sample, ED50 (mg/kg) was determined.

[3] = in vivo; details: for selectivity ratio: LD50 mouse i.v. / antiemetic ED50 dog s.c., x 1/1000, Table I, read-out: Safety margin (LD50/ED50); for LD50 at 168 h: iv, mouse, i.v. tail injection, mortality after one week, Table I, read-out: Toxicity LD50
Procedure: Each of the test samples was injected intravenously to a mouse in the tail portion at a rate of 0.1 ml./10 g./10 sec. by an up and down method. The mortality rate after one week was checked and from the relation between the amount of the sample used and the mortality rate, LD50 (mg/kg) was determined.

[4] = system: emesis induced by apomorphine; assay: Antiemetic activity, oral (apomorphine-induced emesis); assay type: in vivo, dog; details: for ED50: Canis lupus familiaris, po, dog, p.o. in capsules with lactose, 90 min before apomorphine 0.1 mg/kg s.c., Table II; for Activity efficiency (ED50 p.o/ED50 s.c): antiemetic ED50, dog
Procedure: 2. Oral administration: Each of the test samples was mixed with lactose and was filled in capsules. The capsules were orally administered to a dog, 0.1 mg./kg. of apomorphine was administered to the dog by subcutaneous injection after 90 minutes, and then the frequency of emesis was measured within 30 minutes after the apomorphine injection. (Each dog was used only once.) The drugs were evaluated by ED50 values in the same way as described in Experiment I-a.

[5] = system: spontaneous motility of the stomach; assay: Effect of stimulating gastric motility (ballon method); assay type: in vivo; details: anesthetized dog, i.v.; Table III
Procedure: After anesthetizing a dog which had fasted overnight by intravenously injecting 30 mg./kg. of pentobarbital, each of the test samples was injected intravenously and then the spontaneous motility of the stomach was recorded by means of a polygraph (RM-150, made by Nihon Koden K. K.) according to the ballon method (Jap. J. Smooth Muscle Res., 2, 15(1966)). In addition, the effect of stimulating the gastric motility was denoted as (+) and (++) respectively when 10 mg./kg. and 5 mg./kg. each of the sample was intervenously injected and the stimulated motility of the stomach continued longer than 20 minutes.

[6] = system: emesis; details: in vivo; cited from earlier work
[7] = system: gastric motility; details: in vivo; cited from earlier work
[8] = system: catalepsy; details: in vivo; cited from earlier work
[9] = dog, s.c., 30 min before apomorphine 0.1 mg/kg s.c., Table I
[10] = s.c., every 30 min till 240 min, symbol of Table II, read-out: Catalepsy ED50 (not measurable, symbol)
[11] = dog, s.c., 30 min before apomorphine 0.1 mg/kg s.c.

Compound | ED50 [1, 9] | ED50 at 4 h [2, 10] | selectivity ratio [3] | LD50 at 168 h [3] | ED50 [4] | Activity efficiency (ED50 p.o/ED50 s.c) [4] | Antiemetic activity ED50 (s.c) [1, 11] | Effect of stimulating gastric motility [5] | ED50 [1] | ED50 at 4 h ([2]; s.c., every 30 min till 240 min, Table II, read-out: Catalepsy ED50) | ED50 at 4 h [2] | Antiemetic activity, literature [6] | Effect on gastric motility, literature [7] | Catalepsy, literature [8]
CCN1CCCC1CNC(=O)c1nc(Cl)c(N)nc1OC (centres unmarked) [N-(1-ethylpyrrolidin-2-ylmethyl)-5-amino-6-chloro-3-methoxypyrazine-2-carboxamide] | 0.002 mg/kg | > 100 mg/kg | 45700 | 91.3 mg/kg | 0.004 mg/kg | 2.0 |  |  |  |  |  |  |  | 
CCN1CCCC1CNC(=O)c1nc(Cl)cnc1OC (centres unmarked) [N-(1-ethylpyrrolidin-2-ylmethyl)-5-chloro-2-methoxypyrazine-3-carboxamide] | 0.02 mg/kg |  | 8500 | 170 mg/kg |  |  |  |  |  |  |  |  |  | 
CCNc1nc(OC)c(C(=O)NCC2CCCN2CC)nc1Cl (centres unmarked) [N-(1-ethylpyrrolidin-2-ylmethyl)-6-chloro-5-ethylamino-3-methoxypyrazine-2-carboxamide] | 0.0026 mg/kg | > 100 mg/kg | 23500 | 61.1 mg/kg | 0.006 mg/kg | 2.3 | 0.0026 mg/kg |  |  |  |  |  |  | 
CCNc1nc(OC)c(C(=O)NCC2CCCN2C)nc1Cl (centres unmarked) [N-(1-methylpyrrolidin-2-ylmethyl)-6-chloro-5-ethylamino-3-methoxypyrazine-2-carboxamide] | 0.003 mg/kg |  | 15000 | 45 mg/kg |  |  |  |  |  |  |  |  |  | 
CCOc1nc(N)c(Cl)nc1C(=O)NCCN(CC)CC [N-(2-diethylaminoethyl)-5-amino-6-chloro-3-ethoxypyrazine-2-carboxamide] | 0.012 mg/kg |  | 6010 | 72.1 mg/kg |  |  |  |  |  |  |  |  |  | 
CCN(CC)CCNC(=O)c1nc(Cl)c(N)nc1OC [N-(2-diethylaminoethyl)-5-amino-6-chloro-3-methoxypyrazine-2-carboxamide] | 0.012 mg/kg | > 100 mg/kg | 12500 | 150 mg/kg | 0.07 mg/kg | 5.8 | 0.012 mg/kg |  |  |  |  |  |  | 
CCN(CC)CCNC(=O)c1nc(Cl)c(Nc2ccccc2)nc1OC [N-(2-diethylaminoethyl)-5-anilino-6-chloro-3-methoxypyrazine-2-carboxamide] |  |  |  |  |  |  |  | + to ++ |  |  |  |  |  | 
CCN(CC)CCNC(=O)c1nc(Cl)c(NC)nc1OC [N-(2-diethylaminoethyl)-6-chloro-3-methoxy-5-methylaminopyrazine-2-carboxamide] | 0.01 mg/kg |  | 9100 | 91 mg/kg |  |  |  |  |  |  |  |  |  | 
CCNc1nc(OC)c(C(=O)NCCN(CC)CC)nc1Cl [N-(2-diethylaminoethyl)-6-chloro-5-ethylamino-3-methoxypyrazine-2-carboxamide] | 0.02 mg/kg | > 100 mg/kg | 4550 | 91 mg/kg | 0.065 mg/kg | 3.3 | 0.02 mg/kg | + to ++ |  |  |  |  |  | 
CN(C)CCCN1c2ccccc2Sc2ccc(Cl)cc21 [chlorpromazine, reference compound] |  |  | 290 | 71.4 mg/kg | 2 mg/kg | 8.0 | 0.25 mg/kg |  | 0.25 mg/kg | 7 mg/kg |  |  |  | 
CCN(CC)CCNC(=O)c1cc(Cl)c(N)cc1OC [metoclopramide, N-(diethylaminoethyl)-4-amino-5-chloro-2-methoxybenzamide, reference compound] | 0.03 mg/kg |  |  | 61 mg/kg | 0.13 mg/kg |  | 0.03 mg/kg |  |  |  | 45 mg/kg | stronger antiemetic activity than chlorpromazine | effect of stimulating gastric motility | produces catalepsy as a side effect
